Experiments:
[1] = Antiinflammatory activity in C57BL/6 mouse BMDCs assessed as inhibition of LPS-stimulated IL12 production at 50 uM treated 1 hr before LPS challenge measured 18 hrs post stimulation by ELISA; assay type: functional, BMDC
[2] = Toxicity in C57BL/6 mouse BMDCs at 50 uM; assay type: cell-based; settings: bmdc
[3] = Antiinflammatory activity in C57BL/6 mouse BMDCs assessed as inhibition of LPS-stimulated TNFalpha production at 50 uM treated 1 hr before LPS challenge measured 18 hrs post stimulation by ELISA; assay type: functional, BMDC
[4] = Antiinflammatory activity in C57BL/6 mouse BMDCs assessed as inhibition of LPS-stimulated IL6 production at 50 uM treated 1 hr before LPS challenge measured 18 hrs post stimulation by ELISA; assay type: functional; settings: C57BL/6, BMDC

SMILES | inhibition (INH) [1] [%] | Activity [2] | inhibition (INH) [3] [%] | inhibition at 50 µM [4] [%]
C[S+]([O-])c1ccc(-c2nc(-c3ccc(F)cc3)c(-c3ccncc3)[nH]2)cc1 (centres undefined) [SB-203580] | 84.3 |  |  | 
C=C(C)[C@@H]1CC[C@]2(C(=O)O[C@@H]3O[C@H](CO[C@@H]4O[C@H](CO)[C@@H](O[C@H]5O[C@@H](C)[C@H](O)[C@@H](O)[C@H]5O)[C@H](O)[C@H]4O)[C@@H](O)[C@H](O)[C@H]3O)CC[C@]3(C)[C@H](C[C@@H](O)[C@@H]4[C@@]5(C)CC[C@@H](O)[C@@](C)(C=O)[C@@H]5CC[C@]43C)[C@@H]12 [ACANKOREOSIDE D] | <50 | Non-toxic |  | 
COC(OC)[C@H](C)[C@@H]1CC[C@]2(C(=O)O)CC[C@]3(C)[C@H](CC[C@@H]4[C@@]5(C)CC[C@@H](O)[C@@](C)(C(=O)O)[C@@H]5CC[C@]43C)[C@@H]12 | 94.2 | Non-toxic | 64.7 | 63.6
C=C(C)[C@@H]1CC[C@]2(C(=O)O)CC[C@]3(C)[C@H](CC[C@@H]4[C@@]5(C)CC[C@@H](O)[C@@](C)(C(=O)O)[C@@H]5CC[C@]43C)[C@@H]12 | <50 | Non-toxic |  | 
C=C(C)[C@@H]1CC[C@]2(C(=O)O)CC[C@]3(C)[C@H](C[C@@H](O)[C@@H]4[C@@]5(C)CC[C@@H](O[C@@H]6O[C@H](CO)[C@@H](O)[C@H](O)[C@H]6O)C(C)(C)[C@@H]5CC[C@]43C)[C@@H]12 | <50 | Non-toxic |  | 
C=C(C)[C@@H]1CC[C@]2(C(=O)O[C@@H]3O[C@H](CO[C@@H]4O[C@H](CO)[C@@H](O[C@H]5O[C@@H](C)[C@H](O)[C@@H](O)[C@H]5O)[C@H](O)[C@H]4O)[C@@H](O)[C@H](O)[C@H]3O)CC[C@]3(C)[C@H](C[C@@H](O)[C@@H]4[C@@]5(C)CC[C@@H](O)C(C)(C)[C@@H]5CC[C@]43C)C12 (some centres undefined) [ACANTRIFOSIDE A] | <50 | Non-toxic |  | 
C=C(C)[C@@H]1CC[C@]2(C(=O)O[C@@H]3O[C@H](CO[C@@H]4O[C@H](CO)[C@@H](O[C@@H]5O[C@@H](C)[C@H](O)[C@@H](O)[C@H]5O)[C@H](O)[C@H]4O)[C@@H](O)[C@H](O)[C@H]3O)CC[C@]3(C)[C@H](CC[C@@H]4[C@@]5(C)CC[C@@H](O)[C@@](C)(C(=O)O)[C@@H]5CC[C@]43C)[C@@H]12 [ACANKOREOSIDE A] | <50 | Non-toxic |  | 
C=C(C)[C@@H]1CC[C@]2(C(=O)O[C@@H]3O[C@H](CO[C@@H]4O[C@H](CO)[C@@H](O)[C@H](O)[C@H]4O)[C@@H](O)[C@H](O)[C@H]3O)CC[C@]3(C)[C@H](CC[C@@H]4[C@@]5(C)CC[C@@H](O)[C@@](C)(C(=O)O)[C@@H]5CC[C@]43C)[C@@H]12 | <50 | Non-toxic |  | 
C=C(C)[C@@H]1CC[C@]2(C(=O)O)CC[C@]3(C)[C@H](C[C@@H](O)[C@@H]4[C@@]5(C)CC[C@@H](O)C(C)(C)[C@@H]5CC[C@]43C)[C@@H]12 [IMPRESSIC ACID] | 62.6 | Non-toxic | 67.9 | 
C=C(C)[C@@H]1CC[C@]2(C(=O)O)CC[C@]3(C)[C@H](C[C@@H](O)[C@@H]4[C@@]5(C)CC[C@@H](O)[C@@](C)(C=O)[C@@H]5CC[C@]43C)[C@@H]12 | 57.6 | Non-toxic |  | 
C=C(C)[C@@H]1CC[C@]2(C(=O)O)CC[C@]3(C)[C@H](C[C@@H](O)[C@@H]4[C@@]5(C)CC[C@@H](O)[C@@](C)(CO)[C@@H]5CC[C@]43C)[C@@H]12 | <50 | Non-toxic |  | 
